# Article PMC4774911, “Biochemical Screening of Five Protein Kinases from Plasmodium falciparum against 14,000 Cell-Active Compounds” (PLoS ONE, 2016)
# Where “and” joins values, the source holds several entries; their conditions need not be identical. Identical values can stand only once.
# Columns and labels:
# Assay in all cases: biochemical
# Parameters in all cases: endogenous in cells; host or cells: K562 cell extract; species or system K562 (extract); replicate k of n = 2 (each experiment ID is one independent experiment; two experiment IDs per compound)
# Conditions in all cases: read-out: KDapp
# EPHB4 = target: T1, EPHB4 (Homo sapiens, UniProt P54760)
# T1 sequence (P54760 1-987): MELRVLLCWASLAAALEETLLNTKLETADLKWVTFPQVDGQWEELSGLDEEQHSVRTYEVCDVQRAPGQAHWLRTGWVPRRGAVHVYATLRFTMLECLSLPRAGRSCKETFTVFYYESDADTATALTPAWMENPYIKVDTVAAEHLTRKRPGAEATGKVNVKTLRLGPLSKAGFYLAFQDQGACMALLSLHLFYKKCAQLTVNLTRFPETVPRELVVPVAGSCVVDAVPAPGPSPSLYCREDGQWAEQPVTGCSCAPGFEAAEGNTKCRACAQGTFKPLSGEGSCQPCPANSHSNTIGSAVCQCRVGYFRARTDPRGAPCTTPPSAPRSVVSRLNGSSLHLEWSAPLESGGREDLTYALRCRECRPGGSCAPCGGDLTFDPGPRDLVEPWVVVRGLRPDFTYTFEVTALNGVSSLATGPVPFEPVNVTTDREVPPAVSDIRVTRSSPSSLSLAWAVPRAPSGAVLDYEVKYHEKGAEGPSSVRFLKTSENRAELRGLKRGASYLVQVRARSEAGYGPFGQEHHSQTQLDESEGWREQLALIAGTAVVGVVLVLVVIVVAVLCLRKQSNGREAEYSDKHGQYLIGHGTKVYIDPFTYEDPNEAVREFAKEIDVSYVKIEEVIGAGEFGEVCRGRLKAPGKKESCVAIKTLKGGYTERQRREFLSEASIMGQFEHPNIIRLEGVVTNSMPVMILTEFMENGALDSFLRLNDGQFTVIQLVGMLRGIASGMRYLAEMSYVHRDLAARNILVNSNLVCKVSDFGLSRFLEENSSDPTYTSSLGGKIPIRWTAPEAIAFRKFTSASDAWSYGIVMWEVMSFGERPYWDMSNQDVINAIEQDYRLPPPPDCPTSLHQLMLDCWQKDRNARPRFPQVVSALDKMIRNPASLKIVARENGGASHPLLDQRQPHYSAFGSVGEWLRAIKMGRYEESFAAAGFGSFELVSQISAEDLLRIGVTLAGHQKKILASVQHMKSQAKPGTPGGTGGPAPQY
# GSK3A = GSK3A (Homo sapiens, UniProt P49840)
# KIAA0999 = KIAA0999 (Homo sapiens, UniProt Q9Y2K2)
# Sequence of KIAA0999 (Q9Y2K2 whole entry): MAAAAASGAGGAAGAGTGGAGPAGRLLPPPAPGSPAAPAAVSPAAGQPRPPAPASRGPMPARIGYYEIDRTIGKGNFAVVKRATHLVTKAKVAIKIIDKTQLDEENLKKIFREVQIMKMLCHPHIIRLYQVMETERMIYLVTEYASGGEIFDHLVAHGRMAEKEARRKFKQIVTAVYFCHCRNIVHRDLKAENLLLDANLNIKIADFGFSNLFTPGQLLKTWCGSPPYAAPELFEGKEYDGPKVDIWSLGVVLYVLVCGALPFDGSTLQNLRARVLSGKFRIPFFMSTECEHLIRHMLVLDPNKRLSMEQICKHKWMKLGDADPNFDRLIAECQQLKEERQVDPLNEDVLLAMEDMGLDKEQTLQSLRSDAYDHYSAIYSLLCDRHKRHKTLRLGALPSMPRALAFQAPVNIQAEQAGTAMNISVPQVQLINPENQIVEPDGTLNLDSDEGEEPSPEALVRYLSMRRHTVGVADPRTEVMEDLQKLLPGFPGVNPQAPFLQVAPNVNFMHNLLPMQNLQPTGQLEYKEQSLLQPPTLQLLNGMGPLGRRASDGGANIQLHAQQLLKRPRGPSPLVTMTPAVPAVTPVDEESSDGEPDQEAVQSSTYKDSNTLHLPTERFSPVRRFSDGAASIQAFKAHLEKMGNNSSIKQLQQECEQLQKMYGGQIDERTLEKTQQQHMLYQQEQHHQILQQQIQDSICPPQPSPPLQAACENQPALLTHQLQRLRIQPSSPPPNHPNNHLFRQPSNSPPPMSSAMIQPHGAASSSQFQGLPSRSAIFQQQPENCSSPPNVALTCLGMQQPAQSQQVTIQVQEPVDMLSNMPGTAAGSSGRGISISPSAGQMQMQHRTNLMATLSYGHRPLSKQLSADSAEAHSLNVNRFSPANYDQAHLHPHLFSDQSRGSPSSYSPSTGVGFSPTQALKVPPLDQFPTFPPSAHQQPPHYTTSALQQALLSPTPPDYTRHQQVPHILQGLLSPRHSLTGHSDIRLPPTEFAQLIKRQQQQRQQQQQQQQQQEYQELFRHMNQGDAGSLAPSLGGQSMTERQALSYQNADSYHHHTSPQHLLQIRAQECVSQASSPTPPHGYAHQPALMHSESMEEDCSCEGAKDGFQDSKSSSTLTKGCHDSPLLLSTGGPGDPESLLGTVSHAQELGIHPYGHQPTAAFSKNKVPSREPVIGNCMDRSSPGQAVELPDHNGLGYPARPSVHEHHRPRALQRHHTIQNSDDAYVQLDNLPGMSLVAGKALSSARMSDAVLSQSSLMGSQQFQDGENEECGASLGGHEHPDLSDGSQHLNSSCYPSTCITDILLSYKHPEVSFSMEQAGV
# MELK = MELK (Homo sapiens, UniProt Q14680)
# PRKAA1 = PRKAA1 (Homo sapiens, UniProt Q13131)
# Sequence of PRKAA1 (Q13131 whole entry): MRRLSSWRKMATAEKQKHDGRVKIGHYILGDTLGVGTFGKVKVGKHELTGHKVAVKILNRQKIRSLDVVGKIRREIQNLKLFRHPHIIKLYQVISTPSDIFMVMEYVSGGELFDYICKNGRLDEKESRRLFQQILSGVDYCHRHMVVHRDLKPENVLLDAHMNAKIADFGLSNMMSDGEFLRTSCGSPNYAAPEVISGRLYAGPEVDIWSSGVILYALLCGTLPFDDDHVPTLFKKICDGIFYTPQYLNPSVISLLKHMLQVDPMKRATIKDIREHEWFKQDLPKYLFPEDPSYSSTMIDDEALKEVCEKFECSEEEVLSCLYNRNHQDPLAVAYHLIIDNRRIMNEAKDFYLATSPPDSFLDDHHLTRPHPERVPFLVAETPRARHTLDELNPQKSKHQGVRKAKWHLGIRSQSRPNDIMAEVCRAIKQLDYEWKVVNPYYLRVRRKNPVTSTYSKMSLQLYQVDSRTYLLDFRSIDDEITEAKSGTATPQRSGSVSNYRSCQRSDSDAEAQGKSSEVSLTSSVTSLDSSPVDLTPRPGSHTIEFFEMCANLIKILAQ
# PTK2B = PTK2B (Homo sapiens, UniProt Q14289)
# Sequence of PTK2B (Q14289 whole entry): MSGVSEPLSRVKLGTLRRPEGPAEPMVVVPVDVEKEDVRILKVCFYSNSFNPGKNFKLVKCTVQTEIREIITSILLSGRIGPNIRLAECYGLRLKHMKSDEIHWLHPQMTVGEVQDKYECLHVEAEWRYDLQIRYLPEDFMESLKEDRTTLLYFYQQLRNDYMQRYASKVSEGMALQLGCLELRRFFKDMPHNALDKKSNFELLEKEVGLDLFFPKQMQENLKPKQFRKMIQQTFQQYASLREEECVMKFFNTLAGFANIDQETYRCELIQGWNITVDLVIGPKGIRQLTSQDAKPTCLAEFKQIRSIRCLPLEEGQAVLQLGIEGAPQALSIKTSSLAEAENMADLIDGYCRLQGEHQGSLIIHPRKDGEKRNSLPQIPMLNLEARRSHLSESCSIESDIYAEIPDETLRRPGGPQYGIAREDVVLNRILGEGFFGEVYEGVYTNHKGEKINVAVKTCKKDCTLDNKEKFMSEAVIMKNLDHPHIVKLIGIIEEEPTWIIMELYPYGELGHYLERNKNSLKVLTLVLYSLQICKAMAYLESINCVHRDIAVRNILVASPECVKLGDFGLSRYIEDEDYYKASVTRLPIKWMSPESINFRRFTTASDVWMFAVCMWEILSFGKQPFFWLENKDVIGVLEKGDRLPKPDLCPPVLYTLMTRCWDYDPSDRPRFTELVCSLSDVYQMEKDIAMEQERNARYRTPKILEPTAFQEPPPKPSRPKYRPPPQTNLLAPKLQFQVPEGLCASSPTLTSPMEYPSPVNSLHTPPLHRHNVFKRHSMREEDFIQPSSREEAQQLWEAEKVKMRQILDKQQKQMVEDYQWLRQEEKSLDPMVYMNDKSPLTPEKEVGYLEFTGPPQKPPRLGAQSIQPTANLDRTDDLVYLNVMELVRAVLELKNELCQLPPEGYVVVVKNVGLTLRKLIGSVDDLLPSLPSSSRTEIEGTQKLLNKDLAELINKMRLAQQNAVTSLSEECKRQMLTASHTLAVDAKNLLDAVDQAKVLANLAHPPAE
# SIK2 = SIK2 (Homo sapiens, UniProt Q9H0K1)
# Sequence of SIK2 (Q9H0K1 whole entry): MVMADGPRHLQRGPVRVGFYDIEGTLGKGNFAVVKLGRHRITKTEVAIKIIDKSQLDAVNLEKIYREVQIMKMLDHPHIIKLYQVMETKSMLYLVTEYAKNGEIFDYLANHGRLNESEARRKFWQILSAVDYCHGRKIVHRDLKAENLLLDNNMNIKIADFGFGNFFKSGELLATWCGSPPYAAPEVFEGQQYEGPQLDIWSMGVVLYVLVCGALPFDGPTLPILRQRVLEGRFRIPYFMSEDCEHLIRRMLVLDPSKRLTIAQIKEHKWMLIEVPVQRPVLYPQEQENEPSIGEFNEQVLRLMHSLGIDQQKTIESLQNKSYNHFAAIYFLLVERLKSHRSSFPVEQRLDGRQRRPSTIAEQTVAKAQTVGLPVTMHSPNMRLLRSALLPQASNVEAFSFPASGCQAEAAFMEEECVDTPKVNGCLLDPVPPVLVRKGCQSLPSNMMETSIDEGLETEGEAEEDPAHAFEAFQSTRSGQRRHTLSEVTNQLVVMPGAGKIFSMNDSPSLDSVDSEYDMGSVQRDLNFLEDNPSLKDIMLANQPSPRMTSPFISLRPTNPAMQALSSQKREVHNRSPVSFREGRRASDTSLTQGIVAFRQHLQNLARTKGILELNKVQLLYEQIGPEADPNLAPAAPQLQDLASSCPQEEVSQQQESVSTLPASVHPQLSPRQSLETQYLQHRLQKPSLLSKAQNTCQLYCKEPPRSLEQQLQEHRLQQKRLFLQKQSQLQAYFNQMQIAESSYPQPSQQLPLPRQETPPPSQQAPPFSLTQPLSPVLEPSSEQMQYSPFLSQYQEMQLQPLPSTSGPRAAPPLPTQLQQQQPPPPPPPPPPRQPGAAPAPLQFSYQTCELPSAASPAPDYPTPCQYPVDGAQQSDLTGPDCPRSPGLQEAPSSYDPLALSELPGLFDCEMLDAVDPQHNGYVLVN
# SLK = SLK (Homo sapiens, UniProt Q9H2G2)
# Sequence of SLK (Q9H2G2 whole entry): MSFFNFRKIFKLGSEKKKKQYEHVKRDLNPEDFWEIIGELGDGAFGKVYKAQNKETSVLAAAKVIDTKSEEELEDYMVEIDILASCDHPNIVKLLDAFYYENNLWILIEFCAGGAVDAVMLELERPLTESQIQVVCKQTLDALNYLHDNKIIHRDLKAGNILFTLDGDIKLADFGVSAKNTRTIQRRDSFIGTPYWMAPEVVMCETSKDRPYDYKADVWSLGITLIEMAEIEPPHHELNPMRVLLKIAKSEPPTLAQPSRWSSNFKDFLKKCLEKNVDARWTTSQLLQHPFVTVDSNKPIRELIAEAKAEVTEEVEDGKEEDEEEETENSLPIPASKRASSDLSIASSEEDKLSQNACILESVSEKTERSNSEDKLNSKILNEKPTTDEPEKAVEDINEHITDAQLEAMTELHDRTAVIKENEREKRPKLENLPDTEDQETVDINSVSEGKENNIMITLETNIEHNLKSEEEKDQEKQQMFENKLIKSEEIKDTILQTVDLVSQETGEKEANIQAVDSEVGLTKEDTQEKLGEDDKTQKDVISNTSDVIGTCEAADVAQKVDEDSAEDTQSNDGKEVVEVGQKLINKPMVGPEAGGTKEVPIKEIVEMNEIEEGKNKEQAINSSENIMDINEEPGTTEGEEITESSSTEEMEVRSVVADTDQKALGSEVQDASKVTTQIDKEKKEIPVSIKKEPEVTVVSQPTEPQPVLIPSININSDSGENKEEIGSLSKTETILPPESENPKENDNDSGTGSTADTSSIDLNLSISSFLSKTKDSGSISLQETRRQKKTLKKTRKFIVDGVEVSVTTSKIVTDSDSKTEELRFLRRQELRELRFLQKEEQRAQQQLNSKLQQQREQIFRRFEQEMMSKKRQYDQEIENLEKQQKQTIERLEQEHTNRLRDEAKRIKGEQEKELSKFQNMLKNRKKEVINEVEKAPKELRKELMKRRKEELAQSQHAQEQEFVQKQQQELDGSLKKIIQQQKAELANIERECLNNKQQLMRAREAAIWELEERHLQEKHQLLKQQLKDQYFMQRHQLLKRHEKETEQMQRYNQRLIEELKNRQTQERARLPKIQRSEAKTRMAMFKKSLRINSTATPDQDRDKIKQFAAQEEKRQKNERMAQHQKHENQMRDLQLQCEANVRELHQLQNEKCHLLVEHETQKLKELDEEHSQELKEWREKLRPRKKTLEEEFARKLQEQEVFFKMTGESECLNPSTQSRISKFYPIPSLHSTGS
compound,measurement,setting,value
CN1CCN(c2ccc(Nc3ncc(C#N)c(Nc4ccccc4C(N)=O)n3)cc2)CC1.Cl [TCMDC-134116],Kd,EPHB4,2110 nM
same,Kd,GSK3A,470 nM and 369 nM
same,Kd,KIAA0999,214 nM and 153 nM
same,Kd,MELK,129 nM and 125 nM
same,Kd,PRKAA1,14.1 nM and 18.2 nM
same,Kd,PTK2B,28.1 nM and 35.3 nM
same,Kd,SIK2,10.6 nM
same,Kd,SLK,28.5 nM and 33.8 nM
Cl.NCC1(c2nc(-c3ccc(Cl)c(O)c3)c(-c3ccncc3)[nH]2)CCCCC1 [TCMDC-141154],Kd,EPHB4,2600 nM
same,Kd,KIAA0999,40.3 nM and 31.2 nM
same,Kd,MELK,1680 nM and 1610 nM
same,Kd,SIK2,173 nM and 161 nM
CN(C)CC(O)COc1ccc(Nc2ncc([N+](=O)[O-])c(Nc3ccccc3O)n2)cc1.O=C(O)C(F)(F)F (stereo not shown) [TCMDC-141399],Kd,GSK3A,2250 nM and 2480 nM
same,Kd,PRKAA1,2630 nM and 2850 nM
same,Kd,PTK2B,128 nM and 175 nM
same,Kd,SLK,528 nM and 593 nM
